Results published in ChEMBL document CHEMBL5104196, “Discovery of Novel, Potent, and Selective Small-Molecule Menin-Mixed Lineage Leukemia Interaction Inhibitors through Attempting Introduction of Hydrophilic Groups” (J Med Chem, 2022).
pIC50: −log10 of the molar value. Activity calls are given as the source filed them. The rule behind the calls is not given here.

Tests used:
MV4-11 [1] = assay: Antiproliferative activity against human MV4-11 cells assessed as reduction in cell viability measured for 3 days by cell counting assay; format: functional, cell-based; settings: MV4-11, 72 h
[2] = Half life in Sprague-Dawley rat at 15 mg/kg, po; format: ADME, organism-based; settings: in vivo
Homo sapiens [3] = species on record: Homo sapiens; assay: Inhibition of AGC (unknown origin) at 1 uM in presence of ATP at Km concentration by Mobility shift assay relative to control
[4] = AUC (0 to infinity) in Sprague-Dawley rat at 5 mg/kg, iv; format: ADME, organism-based; parameters: time infinity, dose 5 mg/kg, route iv; settings: in vivo
MV4-11 [5] = assay: Induction of cell cycle arrest in human MV4-11 cells assessed as accumulation at G2/M phase at 0.1 to 10 uM incubated for 24 hrs by PI/RNase staining based flow cytometry analysis; format: functional; settings: dose 0.1-10 µM
[6] = Metabolic stability in Crab eating monkey liver microsome assessed as intrinsic clearance measured upto 60 min by UPLC-MS/MS analysis; format: ADME, Macaca fascicularis; settings: cynomolgus monkey, microsomes, 1 h
MV4-11 [7] = assay: Downregulation of HOXA9 gene in human MV4-11 cells incubated for 24 hrs by real-time PCR analysis; format: functional, cell-based; settings: dose 0.1-10 µM, DDE = dose-dependent effect
[8] = Metabolic stability in Beagle dog liver microsome assessed as intrinsic clearance measured upto 60 min by UPLC-MS/MS analysis; format: ADME, Canis lupus familiaris; settings: microsomes, 1 h
[9] = AUC (0 to t) in Sprague-Dawley rat at 5 mg/kg, iv; format: ADME, organism-based; parameters: dose 5 mg/kg, route iv; settings: in vivo
[10] = Metabolic stability in Crab eating monkey liver microsome assessed as compound remaining measured after 60 min by UPLC-MS/MS analysis; format: ADME, Macaca fascicularis; settings: cynomolgus monkey, liver microsomes, read-out: Stability
[11] = Oral bioavailability in Sprague-Dawley rat at 15 mg/kg; format: ADME, organism-based; settings: in vivo
HL-60 = assay: Antiproliferative activity against human […] assessed as cell growth inhibition measured for 72 hrs by MTT assay; format: functional, cell-based; settings: HL-60, 72 h
[12] = Metabolic stability in CD-1 mouse liver microsome assessed as compound remaining measured after 60 min by UPLC-MS/MS analysis; format: ADME; settings: liver microsomes, read-out: Stability
Homo sapiens [13] = species on record: Homo sapiens; assay: Inhibition of tyrosine kinase (unknown origin) at 1 uM in presence of ATP at Km concentration by Mobility shift assay relative to control

**Q.** With `CN(C)CCOc1ccc2ncnc(NC3CCN(CC4CN(c5ccc(S(=O)(=O)C6CC6)cc5)C4)CC3)c2n1` as the compound, how does the pIC50 (MV4-11 [1]) read?
**A.** 6.44

**Q.** What about the half-life [2] of the same compound?
**A.** 15.5 h

**Q.** What about the inhibition (Homo sapiens [3]) of the same compound?
**A.** < 25%

**Q.** And the AUC(0-inf) [4]?
**A.** 2.5 µg·h/mL

**Q.** And the Activity (MV4-11 [5])?
**A.** Active

**Q.** And the CLint [6]?
**A.** 22 µL/min/mg

**Q.** What about the Activity (MV4-11 [7]) of the same compound?
**A.** Dde

**Q.** And the CLint [8]?
**A.** 13.9 µL/min/mg

**Q.** And the AUC(0-t) [9]?
**A.** 1.7 µg·h/mL

**Q.** What about the remaining at 1 h [10] of the same compound?
**A.** 52%

**Q.** What about the bioavailability [11] of the same compound?
**A.** 16.9%

**Q.** And the pIC50 (HL-60)?
**A.** < 5.00

**Q.** What about the remaining at 1 h [12] of the same compound?
**A.** 82%

**Q.** What about the inhibition (Homo sapiens [13]) of the same compound?
**A.** < 25%
